This passage reports activity change, negative = cytotoxicity results from PubChem BioAssay AID651817 (Broad Institute, 2012).

The source made the active and inactive calls.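 How the source made its calls: active means compound whose fitted luminescence drop, meaning cytotoxicity, reaches half effect at most twice its top valid tested dose; inconclusive means flat curve with a moderate drop, or an unreliable fit; inactive means rise instead of drop, flat response, or weaker potency.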

This assay in a line: mouse fibroblast viability loss – cell-based, cherry-pick samples, set 2, cytotoxicity control for T. cruzi growth inhibitor project, dose response (AID 651817). The following applies: NIH/3T3 viability, ATP luminescence (CellTiter-Glo), 90 h.

Turning to `Cc1ccc(S(=O)(=O)Nc2ccc3c(c2)CC(=O)N([C@@H](C)CO)C[C@@H](C)[C@@H](CN(C)Cc2ccccc2)O3)cc1`, the activity change, negative = cytotoxicity (at 19.5 µM (top of the series)) is -13.8% (inactive).

With `C[C@H](CO)N1C[C@H](C)[C@@H](CN(C)Cc2ccc(C(F)(F)F)cc2)Oc2c(NC(=O)c3ccncc3)cccc2C1=O`, the activity change, negative = cytotoxicity (at 19.5 µM (top of the series)) was -10.8% (inactive).

Turning to `Cc1noc(C)c1NC(=O)Nc1cccc2c1O[C@H](CN(C)S(C)(=O)=O)[C@H](C)CN([C@H](C)CO)C2=O`, where the note is “at 19.5 µM (top of the series)”, the activity change, negative = cytotoxicity is -14.2% (inactive).

For the compound `C[C@@H]1CN([C@H](C)CO)C(=O)c2cccc(NC(=O)c3ccncc3)c2O[C@@H]1CN(C)CC1CCCCC1`, under “at 19.5 µM (top of the series)”, the activity change, negative = cytotoxicity is 29% (inactive).

As for `C[C@@H]1CN([C@H](C)CO)C(=O)Cc2cc(NS(=O)(=O)c3ccc(F)cc3)ccc2O[C@@H]1CN(C)Cc1ccc(Cl)c(Cl)c1`, where the note is “at 19.5 µM (top of the series)”, the activity change, negative = cytotoxicity is -49.8% (inactive).

As for `Cc1ccc(S(=O)(=O)N(C)C[C@@H]2Oc3ccc(NS(=O)(=O)c4ccc(Cl)cc4)cc3CC(=O)N([C@@H](C)CO)C[C@H]2C)cc1`, the activity change, negative = cytotoxicity (at 19.5 µM (top of the series)) was -61.2% (inactive).

For `C[C@H](CO)N1C[C@H](C)[C@H](CN(C)Cc2ccccc2)Oc2c(NC(=O)c3ccncc3)cccc2C1=O`, where the note is “at 19.5 µM (top of the series)”, the activity change, negative = cytotoxicity is 6.02% (inactive).

Regarding `C[C@@H]1CN([C@H](C)CO)C(=O)c2cccc(NC(=O)c3ccncc3)c2O[C@H]1CN(C)Cc1ccc(C(F)(F)F)cc1`, the activity change, negative = cytotoxicity (at 21 µM (top of the series)) was -18.8% (inactive).

As for `C[C@H](CO)N1C[C@H](C)[C@H](CN(C)Cc2ccc(-c3ccccc3)cc2)Oc2c(NC(=O)c3ccncc3)cccc2C1=O`, the activity change, negative = cytotoxicity (at 19.5 µM (top of the series)) was 4.37% (inactive).

With `Cc1ccc(S(=O)(=O)N(C)C[C@H]2Oc3ccc(NS(=O)(=O)c4ccccc4)cc3CC(=O)N([C@H](C)CO)C[C@H]2C)cc1`, the activity change, negative = cytotoxicity (at 19.5 µM (top of the series)) is -0.01% (inactive).

As for `C[C@H]1CN([C@@H](C)CO)C(=O)Cc2cc(NS(=O)(=O)c3ccccc3)ccc2O[C@H]1CN(C)S(=O)(=O)c1ccc(Cl)cc1`, the activity change, negative = cytotoxicity (at 19.5 µM (top of the series)) is -30.3% (inactive).

With `Cc1ccc(S(=O)(=O)N(C)C[C@@H]2Oc3c(NC(=O)c4nc5ccccc5s4)cccc3C(=O)N([C@H](C)CO)C[C@H]2C)cc1`, where the note is “at 21 µM (top of the series)”, the activity change, negative = cytotoxicity was 44.2% (inactive).

In the case of `C[C@@H]1CN([C@@H](C)CO)C(=O)c2cccc(NC(=O)c3nc4ccccc4s3)c2O[C@H]1CN(C)S(=O)(=O)c1ccc(Cl)cc1`, the activity change, negative = cytotoxicity (at 19.5 µM (top of the series)) is -6.73% (inactive).

For `C[C@@H]1CN([C@@H](C)CO)C(=O)c2cccc(NC(=O)c3ccncc3)c2O[C@@H]1CN(C)Cc1ccc2c(c1)OCO2`, under “at 21 µM (top of the series)”, the activity change, negative = cytotoxicity is -12.5% (inactive).

For the compound `C[C@H]1CN([C@@H](C)CO)C(=O)c2cccc(NC(=O)NC3CCCCC3)c2O[C@@H]1CN(C)S(=O)(=O)c1ccc(F)cc1`, the activity change, negative = cytotoxicity (at 19.5 µM (top of the series)) was 3.7% (inactive).

On to `C[C@@H]1CN([C@H](C)CO)C(=O)c2cccc(NC(=O)NC3CCCCC3)c2O[C@@H]1CN(C)S(=O)(=O)c1ccc(F)cc1`, for which, where the note is “at 19.5 µM (top of the series)”, the activity change, negative = cytotoxicity was 18.6% (inactive).

On to `Cc1ccc(S(=O)(=O)N(C)C[C@@H]2Oc3ccc(NS(=O)(=O)c4ccc(Cl)cc4)cc3CC(=O)N([C@@H](C)CO)C[C@@H]2C)cc1`, for which the activity change, negative = cytotoxicity (at 21 µM (top of the series)) is 11.5% (inactive).

For `C[C@@H]1CN([C@@H](C)CO)C(=O)Cc2cc(NS(=O)(=O)c3ccc(Cl)cc3)ccc2O[C@@H]1CN(C)S(=O)(=O)c1ccc(Cl)cc1`, for the setting “at 19.5 µM (top of the series)”, the activity change, negative = cytotoxicity is -14.1% (inactive).

Take `C[C@@H]1CN([C@@H](C)CO)C(=O)c2cccc(NC(=O)c3ccncc3)c2O[C@H]1CN(C)Cc1ccccc1`: where the note is “at 21 µM (top of the series)”, the activity change, negative = cytotoxicity is 6.47% (inactive).

Take `C[C@@H]1CN([C@@H](C)CO)C(=O)c2cccc(NC(=O)c3nc4ccccc4s3)c2O[C@@H]1CN(C)Cc1ccc2c(c1)OCO2`: under “at 19.5 µM (top of the series)”, the activity change, negative = cytotoxicity was 0.748% (inactive).

Regarding `C[C@H](CO)N1C[C@H](C)[C@H](CN(C)S(=O)(=O)c2ccc(Cl)cc2)Oc2ccc(NS(=O)(=O)c3ccccc3)cc2CC1=O`, the activity change, negative = cytotoxicity (at 21 µM (top of the series)) was -11.3% (inactive).

Take `C[C@@H]1CN([C@@H](C)CO)C(=O)c2cccc(NC(=O)c3nc4ccccc4s3)c2O[C@H]1CN(C)S(=O)(=O)c1ccccc1`: the activity change, negative = cytotoxicity (at 19.5 µM (top of the series)) was -9.49% (inactive).

Take `C[C@H](CO)N1C[C@H](C)[C@H](CN(C)CC2CCCCC2)Oc2c(NC(=O)c3ccncc3)cccc2C1=O`: where the note is “at 19.5 µM (top of the series)”, the activity change, negative = cytotoxicity was 2.09% (inactive).

Take `COc1ccc(S(=O)(=O)Nc2ccc3c(c2)CC(=O)N([C@H](C)CO)C[C@@H](C)[C@H](CN(C)Cc2ccc4c(c2)OCO4)O3)cc1`: for the setting “at 19.5 µM (top of the series)”, the activity change, negative = cytotoxicity was 4.02% (inactive).

On to `C[C@H](CO)N1C[C@H](C)[C@@H](CN(C)Cc2ccc(-c3ccccc3)cc2)Oc2c(NC(=O)c3ccncc3)cccc2C1=O`, for which the activity change, negative = cytotoxicity (at 19.5 µM (top of the series)) was -29.7% (inactive).

As for `C[C@H](CO)N1C[C@H](C)[C@H](CN(C)S(=O)(=O)c2ccc(Cl)cc2)Oc2ccc(NS(=O)(=O)c3ccc(Cl)cc3)cc2CC1=O`, under “at 19.5 µM (top of the series)”, the activity change, negative = cytotoxicity is 7.06% (inactive).

With `Cc1ccc(S(=O)(=O)N(C)C[C@H]2Oc3ccc(NS(=O)(=O)c4ccc(Cl)cc4)cc3CC(=O)N([C@@H](C)CO)C[C@H]2C)cc1`, under “at 21 µM (top of the series)”, the activity change, negative = cytotoxicity is -13.4% (inactive).

For the compound `C[C@@H]1CN([C@H](C)CO)C(=O)c2cccc(NC(=O)c3ccncc3)c2O[C@H]1CN(C)Cc1ccc(Oc2ccccc2)cc1`, the activity change, negative = cytotoxicity (at 19.5 µM (top of the series)) was -6.58% (inactive).

In the case of `Cc1ccc(S(=O)(=O)Nc2ccc3c(c2)CC(=O)N([C@H](C)CO)C[C@H](C)[C@H](CN(C)S(=O)(=O)c2ccc(Cl)cc2)O3)cc1`, the activity change, negative = cytotoxicity (at 21 µM (top of the series)) is -27.3% (inactive).

Regarding `C[C@@H]1CN([C@H](C)CO)C(=O)c2cccc(NC(=O)c3nc4ccccc4s3)c2O[C@H]1CN(C)Cc1ccc2c(c1)OCO2`, the activity change, negative = cytotoxicity (at 19.5 µM (top of the series)) was -10.9% (inactive).

For the compound `C[C@H]1CN([C@@H](C)CO)C(=O)c2cccc(NC(=O)c3ccncc3)c2O[C@H]1CN(C)Cc1ccc(Oc2ccccc2)cc1`, the activity change, negative = cytotoxicity (at 21 µM (top of the series)) is 7.51% (inactive).

For `Cc1noc(C)c1NC(=O)Nc1cccc2c1O[C@H](CN(C)S(C)(=O)=O)[C@@H](C)CN([C@H](C)CO)C2=O`, where the note is “at 19.5 µM (top of the series)”, the activity change, negative = cytotoxicity is 2.45% (inactive).

Turning to `C[C@H](CO)N1C[C@H](C)[C@@H](CN(C)S(=O)(=O)c2ccc(F)cc2)Oc2c(NC(=O)NC3CCCCC3)cccc2C1=O`, where the note is “at 19.5 µM (top of the series)”, the activity change, negative = cytotoxicity is 5.78% (inactive).

As for `COc1ccc(CN(C)C[C@H]2Oc3c(NC(=O)Nc4ccc(C(F)(F)F)cc4)cccc3C(=O)N([C@H](C)CO)C[C@H]2C)cc1`, for the setting “at 4.2 µM (top of the series)”, the activity change, negative = cytotoxicity was 6.55% (inactive).

For `C[C@@H]1CN([C@@H](C)CO)C(=O)c2cccc(NC(=O)c3ccncc3)c2O[C@H]1CN(C)CC1CCCCC1`, the activity change, negative = cytotoxicity (at 19.5 µM (top of the series)) is -8.6% (inactive).

Take `C[C@@H]1CN([C@@H](C)CO)C(=O)c2cccc(NC(=O)c3ccncc3)c2O[C@@H]1CN(C)CC1CCCCC1`: the activity change, negative = cytotoxicity (at 19.5 µM (top of the series)) was 15.4% (inactive).

As to `Cc1ccc(S(=O)(=O)Nc2ccc3c(c2)CC(=O)N([C@@H](C)CO)C[C@@H](C)[C@@H](CN(C)Cc2ccc(Cl)c(Cl)c2)O3)cc1`, the activity change, negative = cytotoxicity (at 21 µM (top of the series)) is -67.6% (inactive).

Consider `C[C@@H]1CN([C@H](C)CO)C(=O)Cc2cc(NS(=O)(=O)c3ccccc3)ccc2O[C@H]1CN(C)S(=O)(=O)c1ccc(Cl)cc1`, for which, under “at 19.5 µM (top of the series)”, the activity change, negative = cytotoxicity was -1.38% (inactive).

In the case of `C[C@H](CO)N1C[C@H](C)[C@@H](CN(C)S(=O)(=O)c2ccc(Cl)cc2)Oc2ccc(NS(=O)(=O)c3ccccc3)cc2CC1=O`, the activity change, negative = cytotoxicity (at 19.5 µM (top of the series)) was -20.3% (inactive).

As to `C[C@H](CO)N1C[C@H](C)[C@H](CN(C)Cc2ccc3c(c2)OCO3)Oc2c(NC(=O)c3nc4ccccc4s3)cccc2C1=O`, the activity change, negative = cytotoxicity (at 19.5 µM (top of the series)) is -1.97% (inactive).

For `C[C@H]1CN([C@@H](C)CO)C(=O)Cc2cc(NS(=O)(=O)c3ccc(Cl)cc3)ccc2O[C@H]1CN(C)S(=O)(=O)c1ccc(Cl)cc1`, the activity change, negative = cytotoxicity (at 19.5 µM (top of the series)) was -12.7% (inactive).

On to `C[C@H]1CN([C@@H](C)CO)C(=O)c2cccc(NC(=O)c3ccncc3)c2O[C@@H]1CN(C)Cc1ccc(-c2ccccc2)cc1`, for which, where the note is “at 19.5 µM (top of the series)”, the activity change, negative = cytotoxicity is -14.8% (inactive).

`C[C@@H]1CN([C@H](C)CO)C(=O)c2cccc(NC(=O)c3nc4ccccc4s3)c2O[C@@H]1CN(C)Cc1ccc2c(c1)OCO2`: the activity change, negative = cytotoxicity (at 19.5 µM (top of the series)) is -22.1% (inactive).

`Cc1ccc(S(=O)(=O)Nc2ccc3c(c2)CC(=O)N([C@@H](C)CO)C[C@H](C)[C@H](CN(C)Cc2ccccc2)O3)cc1`: the activity change, negative = cytotoxicity (at 19.5 µM (top of the series)) is -4.35% (inactive).

On to `C[C@H](CO)N1C[C@H](C)[C@@H](CN(C)Cc2ccc(Oc3ccccc3)cc2)Oc2c(NC(=O)c3ccncc3)cccc2C1=O`, for which, where the note is “at 19.5 µM (top of the series)”, the activity change, negative = cytotoxicity is 16.4% (inactive).

In the case of `C[C@@H]1CN([C@H](C)CO)C(=O)Cc2cc(NS(=O)(=O)c3ccc(Cl)cc3)ccc2O[C@H]1CN(C)Cc1ccc2c(c1)OCO2`, for the setting “at 19.5 µM (top of the series)”, the activity change, negative = cytotoxicity is -22% (inactive).

Take `Cc1ccc(S(=O)(=O)N(C)C[C@@H]2Oc3ccc(NS(=O)(=O)c4ccccc4)cc3CC(=O)N([C@@H](C)CO)C[C@H]2C)cc1`: the activity change, negative = cytotoxicity (at 19.5 µM (top of the series)) is -8.95% (inactive).

For `C[C@H]1CN([C@@H](C)CO)C(=O)c2cccc(NC(=O)Nc3ccc(C(F)(F)F)cc3)c2O[C@@H]1CN(C)Cc1ccc(Cl)c(Cl)c1`, the activity change, negative = cytotoxicity (at 21 µM (top of the series)) was -12.5% (inactive).

With `C[C@H](CO)N1C[C@H](C)[C@H](CN(C)S(=O)(=O)c2ccc(F)cc2)Oc2c(NC(=O)NC3CCCCC3)cccc2C1=O`, the activity change, negative = cytotoxicity (at 19.5 µM (top of the series)) was -54.5% (inactive).

Consider `C[C@@H]1CN([C@H](C)CO)C(=O)c2cccc(NC(=O)c3nc4ccccc4s3)c2O[C@@H]1CN(C)S(=O)(=O)c1ccccc1`, for which the activity change, negative = cytotoxicity (at 19.5 µM (top of the series)) was 35.6% (inactive).

Regarding `Cc1noc(C)c1NC(=O)Nc1cccc2c1O[C@@H](CN(C)S(C)(=O)=O)[C@H](C)CN([C@@H](C)CO)C2=O`, for the setting “at 19.5 µM (top of the series)”, the activity change, negative = cytotoxicity is -28% (inactive).

As for `Cc1ccc(S(=O)(=O)N(C)C[C@H]2Oc3c(NC(=O)c4nc5ccccc5s4)cccc3C(=O)N([C@@H](C)CO)C[C@@H]2C)cc1`, the activity change, negative = cytotoxicity (at 19.5 µM (top of the series)) was -1.47% (inactive).
